Measurements reported in patent US20250313553A1, “ANNULATED 2-AMINO-3-CYANO THIOPHENES AND DERIVATIVES FOR THE TREATMENT OF CANCER” (Boehringer Ingelheim Int'l GmbH Corp., priority 2021, published 2025).

What was measured:
NCI-H358 cells = experiment: NCI-H358 CTG proliferation assay (120 h), assay 1; assay type: cell-based; settings: Homo sapiens, 96 well, 2000 cells per well
Procedure: NCI-H358 cells (ATCC No. CRL-5807) are dispensed into white bottom opaque 96 well plates (Perkin Elmer cat no. 5680) at a density of 2000 cells per well in 100 μL RPMI-1640 ATCC-Formulation (Gibco #A10491)+10% FCS (fetal calf serum) (assay 1) or into black 384-well plates, flat and clear bottom (Greiner, PNr. 781091) at a density of 200 cells per well in 60 μl RPMI-1640 ATCC-Formulation (Gibco #A10491)+10% FCS (fetal calf serum) (assay 2). […] Compounds (10 mM stock in DMSO) are added at logarithmic dose series using the HP Digital Dispenser D300 (Tecan) (assay 1) or the ECHO acoustic liquid handler system (Beckman Coulter) (assay 2), normalizing for added DMSO and including DMSO controls. For the T0 time point measurement, untreated cells are analyzed at the time of compound addition. Plates are incubated for 120 h, and cell viability is measured using CellTiter-Glo luminescent cell viability reagent (Promega product code G7570). Viability (stated as percent of control) is defined as relative luminescence units RLU of each well divided by the RLU of cells in DMSO controls. IC50 values are determined from viability measurements by non-linear regression using a four-parameter model.

KRAS (WT) and SOS1 = biological target: T1, KRAS (WT) and SOS1 (Homo sapiens, UniProt P01116, C118S); experiment: KRAS::SOS1 AlphaScreen binding assay, KRAS WT
T1 construct: KRAS (WT) 1-169, N-terminal 6His-tag for purification; 6His (N, cleaved yes); TEV cleavage site
T1 sequence (P01116 1-169 isoform P01116-2 C118S): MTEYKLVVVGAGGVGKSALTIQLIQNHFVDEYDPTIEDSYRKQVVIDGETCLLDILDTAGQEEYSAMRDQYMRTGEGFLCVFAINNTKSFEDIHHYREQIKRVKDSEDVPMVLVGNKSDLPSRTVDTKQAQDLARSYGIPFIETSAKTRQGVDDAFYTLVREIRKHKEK
Procedure: Low IC50 values in this assay setting are indicative of strong inhibition of protein-protein interaction between SOS1 and KRAS:
These assays measure the inhibitory effect of compounds on KRAS mutant protein-protein interactions using the Alpha Screen technology by Perkin Elmer.
For the chosen highest assay concentration of 100 μM, 150 nL of compound solution are transferred from a 10 mM DMSO compound stock solution. A series of eleven fivefold dilutions per compound are transferred to the assay plate, compound dilutions are tested in duplicates. DMSO are added as backfill to a total volume of 150 nL.
The assays run on a fully automated robotic system in a darkened room below 100 Lux. To 150 nl of compound dilution 10 μl of a mix including KRAS mutant protein, SOS1 (final assay concentrations see above) and GDP nucleotide (Sigma G7127; final assay concentration 10 μM) in assay buffer (1×PBS, 0.1% BSA, 0.05% Tween 20) are added into columns 1-24. […]
Plates are kept at room temperature in a darkened incubator. After an additional 60 minutes incubation time the signal is measured in a PerkinElmer Envision HTS Multilabel Reader using the AlphaScreen specs from PerkinElmer.
IC50 values are calculated and analyzed with Boehringer Ingelheim's MEGALAB IC50 application using a 4 parametric logistic model.

KRAS (G13D) and SOS1 = biological target: T2, KRAS (G13D) and SOS1 (Homo sapiens, UniProt P01116, C118S/G13D); experiment: KRAS::SOS1 AlphaScreen binding assay, KRAS G13D
T2 construct: KRAS (G13D) 1-169, N-terminal 6His-tag for purification; 6His (N, cleaved yes); TEV cleavage site
T2 sequence (P01116 1-169 isoform P01116-2 G13D/C118S): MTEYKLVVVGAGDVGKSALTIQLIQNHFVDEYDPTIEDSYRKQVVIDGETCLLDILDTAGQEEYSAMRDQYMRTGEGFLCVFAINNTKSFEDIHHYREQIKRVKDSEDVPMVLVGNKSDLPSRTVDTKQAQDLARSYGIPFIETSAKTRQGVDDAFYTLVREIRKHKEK
Source text: This assay can be used to examine the potency with which compounds according to the invention binding to (mutated) KRAS inhibit the protein-protein interaction between SOS1 and (mutated) KRAS e.g., KRAS WT, KRAS G12C, KRAS G12D, KRAS G12V or KRAS G13D. […] Low IC50 values in this assay setting are indicative of strong inhibition of protein-protein interaction between SOS1 and KRAS:
These assays measure the inhibitory effect of compounds on KRAS mutant protein-protein interactions using the Alpha Screen technology by Perkin Elmer. […]
Plates are kept at room temperature in a darkened incubator. After an additional 60 minutes incubation time the signal is measured in a PerkinElmer Envision HTS Multilabel Reader using the AlphaScreen specs from PerkinElmer. […]
As internal control known inhibitors of KRAS mutant::SOS1 interaction can be measured on each compound plate. […]

Structure (SMILES)	IC50 (NCI-H358 cells) [µM]	IC50 (KRAS (WT) and SOS1) [nM]	IC50 (KRAS (G13D) and SOS1) [nM]
CC(C)N1CCCN(c2nccc(-c3noc([C@@]4(C)CCCc5sc(N)c(C#N)c54)n3)n2)[C@@H](C)C1 [Example V-9]	0.698		
C[C@H](Oc1nccc(-c2noc([C@@]3(C)CCCc4sc(N)c(C#N)c43)n2)n1)[C@@H]1CCCN1C [Example V-10]	5.41		
C[C@H](Oc1cccc(-c2noc([C@@]3(C)CCCc4sc(N)c(C#N)c43)n2)n1)[C@@H]1CCCN1C [Example V-8]		28	176
C[C@H]1CN(C)CCN1c1cccc(-c2noc([C@@]3(C)CCCc4sc(N)c(C#N)c43)n2)n1 [Example V-1]		125	928
